Legend:
Pythium ultimum = assay: Pythium ultimum/Liquid Culture (Seedling Damping Off); type: cell-based; details: Globisporangium ultimum, read-out: control of Pythium ultimum compared to untreated control (inhibition of growth)
Phytophthora infestans = type: in vivo, Phytophthora infestans (on tomato leaf disks); details: 200 ppm; tomato leaf disks, preventative, inoculated 1 day after application; assessed 5-7 days after application
Plasmopara viticola = type: in vivo, Plasmopara viticola (on grape vine leaf disks); details: 200 ppm; grape vine leaf disks, preventative, inoculated 1 day after application; assessed 6-8 days after application

Row | SMILES | inhibition at 20 ppm (Pythium ultimum) | control of Phytophthora infestans compared to untreated control (percent disease control) (Phytophthora infestans) | control of Plasmopara viticola compared to untreated control (percent disease control) (Plasmopara viticola)
1 | COC(=O)Nc1ccc(-c2cnn3ccc(C(=O)N(C)c4ccc(Cl)cc4)cc23)cc1 [Compound 5, methyl N-[4-[5-[(4-chlorophenyl)-methyl-carbamoyl]pyrazolo[1,5-a]pyridin-3-yl]phenyl]carbamate] | ≥ 80% |  | 
2 | COC(=O)Nc1ccc(-c2cnn3ccc(C(=O)N(CC#N)c4ccc(Cl)c(OC)c4)cc23)cn1 [Compound 2, methyl N-[5-[5-[(4-chloro-3-methoxy-phenyl)-(cyanomethyl)carbamoyl]pyrazolo[1,5-a]pyridin-3-yl]-2-pyridyl]carbamate] | ≥ 80% | at least 80% | 
3 | COC(=O)Nc1ccc(-c2cnn3ccc(C(=O)N(CC#N)c4ccc(F)c(OC)c4)cc23)cn1 [Compound 3, methyl N-[5-[5-[cyanomethyl-(4-fluoro-3-methoxy-phenyl)carbamoyl]pyrazolo[1,5-a]pyridin-3-yl]-2-pyridyl]carbamate] |  | at least 80% | at least 80%
4 | COC(=O)Nc1ccc(-c2cnn3ccc(C(=O)N(C)c4ccc(F)c(OC)c4)cc23)cn1 [Compound 4, methyl N-[5-[5-[(4-fluoro-3-methoxy-phenyl)-methyl-carbamoyl]pyrazolo[1,5-a]pyridin-3-yl]-2-pyridyl]carbamate] | ≥ 80% | at least 80% | at least 80%
5 | CC(=O)Nc1ccc(-c2cnn3ccc(C(=O)N(C)c4ccc(Cl)cc4)cc23)cc1 [Compound 6, 3-(4-acetamidophenyl)-N-(4-chlorophenyl)-N-methyl-pyrazolo[1,5-a]pyridine-5-carboxamide] | ≥ 80% |  | 
6 | COCN(C(=O)c1ccn2ncc(-c3ccc(NC(=O)OC)nc3)c2c1)c1ccc(F)c(OC)c1 [Compound 1, methyl N-[5-[5-[(4-fluoro-3-methoxy-phenyl)-(methoxymethyl)carbamoyl]pyrazolo[1,5-a]pyridin-3-yl]-2-pyridyl]carbamate] | ≥ 80% | at least 80% | at least 80%
